Article PMC4195943, “A novel small-molecule MRCK inhibitor blocks cancer cell invasion” (Cell Communication and Signaling : CCS, 2014)

Experiments:
[1] = molecular target: MRCKα (Homo sapiens, UniProt Q5VT25); assay: IMAP fluorescence polarization kinase assay, MRCKα; format: biochemical; conditions: calculated with Cheng-Prusoff equation
Method: (§1) MRCKα, MRCKβ, ROCK1 and ROCK2 assays were performed using an IMAP fluorescence polarization assay format (Molecular Devices Inc.). 8–12 nM of each kinase (Life Technologies) was incubated for 60 min at room temperature with 100 nM FAM-S6-ribosomal protein derived peptide (synthesized by Alta Biosciences, University of Birmingham UK) in the presence of 1 μM ATP and 0.5 mM MgCl2 in 20 mM Tris buffer (pH 7.4) containing 0.01% Tween-20 and 1 mM DTT (MRCKα and β); or 1 μM ATP, 10 mM MgCl2 in 20 mM Tris buffer (pH 7.5) containing 0.25 mM EGTA 0.01% Triton X-100 and 1 mM DTT (ROCK1 and ROCK2). Typically, dose response analyses were performed over concentration ranges from 0.005 - 100 μM. Reactions were stopped by adding 2 assay volumes of 0.25% (v/v) IMAP binding reagent in 1× IMAP binding buffer A (Molecular Devices). After 30 min incubation to allow binding reagent to bind phosphorylated peptide, fluorescence polarization was measured on a Tecan Saphire^2 plate reader at excitation (470 nm) and emission (530 nm) wavelengths. Inhibition was calculated using no inhibitor and no enzyme controls as 0 and 100% inhibition, respectively.

[2] = molecular target: T1, PRK2 (Homo sapiens, UniProt Q16513); assay: Kinase selectivity profiling (Eurofins), PRK2; format: biochemical
T1 construct: purchased Eurofins
Excerpt: (§2) The results of this screening were mapped over the annotated human kinome phylogenetic tree using Kinome Render (Figure 2).
(§3) Kinases inhibited less than 25% have their names in green text. Kinases inhibited >25% and ≤50% have yellow circles, >50% and ≤75% have orange circles, and >75% have red circles. In each case, the size of the circle is proportional to the percentage inhibition. ROCK1 and MRCKα positions are indicated on the tree for orientation purposes. Illustration reproduced courtesy of Cell Signaling Technology, Inc. (www.cellsignal.com).
as §1, with “Typically, dose response analyses were performed over concentration ranges from 0.005 - 100 μM. Reactions were stopped by adding 2 assay volumes of 0.25% (v/v) IMAP binding reagent in 1× IMAP binding buffer A (Molecular Devices).” left out, “Inhibition was calculated using no inhibitor and no enzyme controls as 0 and 100% inhibition, respectively.” left out

[3] = molecular target: ROCK2 (Homo sapiens, UniProt O75116); assay: IMAP fluorescence polarization kinase assay, ROCK2; format: biochemical; design: purchased Life Technologies; conditions: in vitro, 1 μM ATP
Sequence of ROCK2 (O75116 whole entry): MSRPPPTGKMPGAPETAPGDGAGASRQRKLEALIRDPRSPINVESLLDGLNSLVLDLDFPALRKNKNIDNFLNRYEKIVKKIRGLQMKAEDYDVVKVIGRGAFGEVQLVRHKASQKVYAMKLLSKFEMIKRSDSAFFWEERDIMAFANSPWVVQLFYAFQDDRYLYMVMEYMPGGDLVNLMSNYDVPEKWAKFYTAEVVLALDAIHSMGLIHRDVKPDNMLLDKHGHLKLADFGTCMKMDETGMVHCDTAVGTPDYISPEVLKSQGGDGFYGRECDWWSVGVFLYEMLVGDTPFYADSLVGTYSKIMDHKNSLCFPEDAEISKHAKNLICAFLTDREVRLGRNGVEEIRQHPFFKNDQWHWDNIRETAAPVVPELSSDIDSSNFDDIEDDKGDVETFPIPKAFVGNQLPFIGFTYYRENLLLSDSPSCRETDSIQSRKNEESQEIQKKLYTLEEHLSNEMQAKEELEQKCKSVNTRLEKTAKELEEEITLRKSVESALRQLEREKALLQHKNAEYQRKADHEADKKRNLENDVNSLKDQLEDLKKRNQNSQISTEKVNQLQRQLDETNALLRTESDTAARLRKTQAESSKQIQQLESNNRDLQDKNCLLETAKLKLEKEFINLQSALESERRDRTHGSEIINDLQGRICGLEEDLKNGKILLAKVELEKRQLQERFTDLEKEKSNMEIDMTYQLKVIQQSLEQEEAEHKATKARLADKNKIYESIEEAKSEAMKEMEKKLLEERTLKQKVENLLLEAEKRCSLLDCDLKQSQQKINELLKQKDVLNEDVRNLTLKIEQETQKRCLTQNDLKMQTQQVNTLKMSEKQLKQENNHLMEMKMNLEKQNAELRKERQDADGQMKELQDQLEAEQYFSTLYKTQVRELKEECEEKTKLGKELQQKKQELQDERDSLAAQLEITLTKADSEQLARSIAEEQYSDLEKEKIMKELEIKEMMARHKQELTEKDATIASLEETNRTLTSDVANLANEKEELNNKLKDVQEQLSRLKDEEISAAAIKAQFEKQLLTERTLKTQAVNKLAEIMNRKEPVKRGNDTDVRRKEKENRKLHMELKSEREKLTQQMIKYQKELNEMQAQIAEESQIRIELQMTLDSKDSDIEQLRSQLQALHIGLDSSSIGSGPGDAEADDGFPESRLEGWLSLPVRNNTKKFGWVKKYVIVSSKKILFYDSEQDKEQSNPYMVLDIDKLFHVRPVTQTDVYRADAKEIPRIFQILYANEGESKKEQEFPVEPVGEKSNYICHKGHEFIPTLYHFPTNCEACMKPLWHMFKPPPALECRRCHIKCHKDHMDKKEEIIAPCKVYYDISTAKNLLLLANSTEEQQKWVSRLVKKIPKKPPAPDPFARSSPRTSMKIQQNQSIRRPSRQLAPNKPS
Method: as §1

[4] = molecular target: ROCK1 (Homo sapiens, UniProt Q13464); assay: IMAP fluorescence polarization kinase assay, ROCK1; format: biochemical; design: purchased Life Technologies; conditions: in vitro, 1 μM ATP
Sequence of ROCK1 (Q13464 whole entry): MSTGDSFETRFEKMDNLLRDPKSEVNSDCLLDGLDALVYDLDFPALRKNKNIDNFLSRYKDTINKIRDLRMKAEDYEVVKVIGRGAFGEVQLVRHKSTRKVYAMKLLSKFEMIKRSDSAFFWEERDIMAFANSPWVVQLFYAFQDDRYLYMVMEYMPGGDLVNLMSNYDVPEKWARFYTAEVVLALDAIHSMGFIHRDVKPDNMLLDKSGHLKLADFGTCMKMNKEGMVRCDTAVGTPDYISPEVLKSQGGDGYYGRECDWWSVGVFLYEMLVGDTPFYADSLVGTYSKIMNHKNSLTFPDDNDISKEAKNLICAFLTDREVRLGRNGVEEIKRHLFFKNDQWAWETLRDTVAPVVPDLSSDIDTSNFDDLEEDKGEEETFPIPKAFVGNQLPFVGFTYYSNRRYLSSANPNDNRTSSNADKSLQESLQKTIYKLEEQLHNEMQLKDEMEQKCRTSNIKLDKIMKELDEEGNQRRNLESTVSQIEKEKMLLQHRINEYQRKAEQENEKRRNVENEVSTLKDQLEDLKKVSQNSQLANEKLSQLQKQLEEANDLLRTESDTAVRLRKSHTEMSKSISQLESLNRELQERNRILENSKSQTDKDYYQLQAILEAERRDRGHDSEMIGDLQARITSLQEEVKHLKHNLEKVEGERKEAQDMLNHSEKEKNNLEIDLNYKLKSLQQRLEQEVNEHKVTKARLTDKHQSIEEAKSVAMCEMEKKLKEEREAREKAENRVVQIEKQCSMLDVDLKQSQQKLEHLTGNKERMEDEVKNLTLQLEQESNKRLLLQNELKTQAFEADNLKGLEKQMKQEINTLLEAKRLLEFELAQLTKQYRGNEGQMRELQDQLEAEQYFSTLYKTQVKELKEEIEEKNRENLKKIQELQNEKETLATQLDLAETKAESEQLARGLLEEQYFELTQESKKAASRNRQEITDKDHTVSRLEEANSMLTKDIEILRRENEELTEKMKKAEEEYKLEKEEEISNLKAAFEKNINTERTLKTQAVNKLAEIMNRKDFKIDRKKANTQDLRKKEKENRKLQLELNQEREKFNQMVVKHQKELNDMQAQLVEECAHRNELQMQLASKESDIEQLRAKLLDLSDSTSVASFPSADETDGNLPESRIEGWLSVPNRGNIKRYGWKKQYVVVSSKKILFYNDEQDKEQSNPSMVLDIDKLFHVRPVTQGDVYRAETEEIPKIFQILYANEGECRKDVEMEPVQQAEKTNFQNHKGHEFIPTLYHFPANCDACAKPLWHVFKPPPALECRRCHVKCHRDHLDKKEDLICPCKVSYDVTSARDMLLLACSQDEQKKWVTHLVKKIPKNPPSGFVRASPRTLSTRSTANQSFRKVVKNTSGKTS
Method: as §1

[5] = molecular target: T2, PKAα (Homo sapiens, UniProt P17612); assay: Kinase selectivity profiling (Eurofins), PKAα; format: biochemical
T2 construct: purchased Eurofins
Excerpt: as §2, §3
as §1, with “Typically, dose response analyses were performed over concentration ranges from 0.005 - 100 μM. Reactions were stopped by adding 2 assay volumes of 0.25% (v/v) IMAP binding reagent in 1× IMAP binding buffer A (Molecular Devices).” left out, “Inhibition was calculated using no inhibitor and no enzyme controls as 0 and 100% inhibition, respectively.” left out

[6] = tested on: MLC phosphorylation in SCC12 cells; assay: MLC phosphorylation in SCC12 squamous cell carcinoma cells (quantitative western blot); format: cell-based, human
Method: All results are shown as mean ± standard error of n = 3 independent replicates. […] Readings were compared to the Alamar Blue metabolism in DMSO treated cells that were used as the viability standard of 100% for each replicate experiment. […] (F) Number of invading cells was determined in 5 random fields for each condition for each separate replicate experiment. All results are shown as mean ± standard error of n ≥ 3 independent replicates.
Cell lysates were prepared as described previously. For pMLC western blots, cells were lysed in a 1% (w/v) SDS, 50 mM Tris pH 7.5 buffer and lysates were passed through QIAshredder columns (Qiagen, 79654). Alternatively, for pMLC western blots lysates were prepared in lysis buffer with 50 mM Tris (pH7.5), 0.5% (w/v) SDS, supplemented with Complete Protease and PhosSTOP inhibitors (Roche). Whole cell lysates were separated by SDS-PAGE, transferred to Protran nitrocellulose membranes (Whatman), probed with primary antibodies and appropriate IR dye-conjugated secondary antibodies. Blots were visualized using a Licor Odyssey according to manufacturer’s instructions. […]

[7] = molecular target: T3, MRCKβ (Homo sapiens, UniProt Q9Y5S2); assay: IMAP fluorescence polarization kinase assay, MRCKβ; format: biochemical; conditions: in vitro, 1 μM ATP
T3 construct: purchased Life Technologies
T3 sequence (Q9Y5S2 whole entry): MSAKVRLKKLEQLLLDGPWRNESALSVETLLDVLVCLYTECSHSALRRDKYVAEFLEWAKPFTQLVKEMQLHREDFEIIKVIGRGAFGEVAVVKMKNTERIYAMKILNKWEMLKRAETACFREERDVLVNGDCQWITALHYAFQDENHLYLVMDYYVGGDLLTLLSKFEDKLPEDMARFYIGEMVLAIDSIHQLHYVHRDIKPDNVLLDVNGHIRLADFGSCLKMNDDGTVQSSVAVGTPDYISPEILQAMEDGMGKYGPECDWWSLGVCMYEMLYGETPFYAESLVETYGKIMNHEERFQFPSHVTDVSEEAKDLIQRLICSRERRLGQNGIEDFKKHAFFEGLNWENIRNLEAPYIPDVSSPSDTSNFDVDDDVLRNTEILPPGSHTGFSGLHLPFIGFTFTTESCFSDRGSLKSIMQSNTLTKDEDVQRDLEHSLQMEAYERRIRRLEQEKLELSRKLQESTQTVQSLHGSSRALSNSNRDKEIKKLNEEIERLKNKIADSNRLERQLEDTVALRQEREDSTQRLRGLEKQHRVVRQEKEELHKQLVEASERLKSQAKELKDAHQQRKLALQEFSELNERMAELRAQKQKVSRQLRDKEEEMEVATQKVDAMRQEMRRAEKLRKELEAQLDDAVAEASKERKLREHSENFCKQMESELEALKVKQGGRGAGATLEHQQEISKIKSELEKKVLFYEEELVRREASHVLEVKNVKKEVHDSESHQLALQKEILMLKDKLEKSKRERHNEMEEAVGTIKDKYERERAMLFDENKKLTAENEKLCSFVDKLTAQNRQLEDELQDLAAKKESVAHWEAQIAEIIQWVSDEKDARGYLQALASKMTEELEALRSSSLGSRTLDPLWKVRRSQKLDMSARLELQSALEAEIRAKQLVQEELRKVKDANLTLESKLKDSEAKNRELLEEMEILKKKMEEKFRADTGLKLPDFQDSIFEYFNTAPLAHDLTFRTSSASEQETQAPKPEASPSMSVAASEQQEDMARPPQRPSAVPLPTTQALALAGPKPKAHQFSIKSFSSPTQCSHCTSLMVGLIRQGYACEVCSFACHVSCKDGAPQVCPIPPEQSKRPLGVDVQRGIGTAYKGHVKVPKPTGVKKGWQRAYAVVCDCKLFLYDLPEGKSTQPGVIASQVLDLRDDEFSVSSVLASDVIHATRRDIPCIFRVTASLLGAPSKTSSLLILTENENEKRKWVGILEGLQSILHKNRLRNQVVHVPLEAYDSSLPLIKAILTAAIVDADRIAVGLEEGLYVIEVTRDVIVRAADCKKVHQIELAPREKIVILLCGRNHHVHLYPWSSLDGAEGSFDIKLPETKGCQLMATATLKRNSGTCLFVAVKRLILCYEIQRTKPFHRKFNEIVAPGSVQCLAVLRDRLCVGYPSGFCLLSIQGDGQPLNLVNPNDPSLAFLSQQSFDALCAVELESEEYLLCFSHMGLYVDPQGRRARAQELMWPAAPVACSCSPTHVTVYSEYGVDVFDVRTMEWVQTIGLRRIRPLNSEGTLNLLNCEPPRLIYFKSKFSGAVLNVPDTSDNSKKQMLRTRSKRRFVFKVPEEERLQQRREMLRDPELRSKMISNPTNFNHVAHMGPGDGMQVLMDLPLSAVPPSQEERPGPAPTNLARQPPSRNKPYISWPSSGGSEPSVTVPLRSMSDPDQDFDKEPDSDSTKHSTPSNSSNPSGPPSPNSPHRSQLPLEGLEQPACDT
Method: as §1

Row | Compound | Ki [1] [nM] | inhibition at 10 µM [2] [%] | IC50 [3] [nM] | IC50 [4] [nM] | inhibition at 10 µM [5] [%] | phosphorylated MLC at higher doses in SCC12 cells [6] | IC50 [7] [nM]
1 | O=C(Nc1cn[nH]c1-c1ccccn1)c1nn(C2CCNCC2)cc1Cl [BDP5290, 4-chloro-1-(4-piperidyl)-N-[5-(2-pyridyl)-1H-pyrazol-4-yl]pyrazole-3-carboxamide] | 10 | > 75 | 123 | 230 | > 75 |  | 
2 | C[C@@H](N)[C@H]1CC[C@H](C(=O)Nc2ccncc2)CC1 [Y27632, reference compound] |  |  |  |  |  | residual phosphorylated MLC | 1450
